Patent publication US8304455B2, “Compositions and methods of their use for improving the condition and appearance of skin” (Avon Products, Inc, priority 2004, dated 2012)
Values joined by “and” are separate entries in the source; they are usually repeats but may differ in a detail not shown here. Equal entries are not always repeated.

Key:
Assay type in all cases: cell-based
Conditions in all cases: normal human epidermal keratinocytes; transcript numbers normalized to vehicle control; replicate values
Frizzled 10 = test: PCR gene expression, Frizzled 10
Procedure: (§1) A vial of cryopreserved normal human epidermal keratinocytes (Adult or Neonatal) was removed from liquid N2 and placed in a 37° C. water bath for 1-2 minutes, or until completely thawed. The vial was then removed from the water bath and the excess water was wiped off. The vial was placed into a cell culture hood for sterility. The vial was wiped with 70% ethanol to air dry for 30 seconds. While in the cell culture hood, the cells were removed from the vial and placed into a 50 ml tube. The appropriate growth media (5 ml) was added drop wise while agitating the tube, allowing uniform mixture of the cells and medium while limiting cell death due to osmotic changes caused by freezing media, Medium (25 ml) was added to the 50 ml tube to bring the volume up to 30 ml. Into two 75 cm2 flasks, medium/cell solution (15 ml) was added, or to six 25 cm2 flasks, medium (5 ml) was added. Flasks were recapped and placed horizontally in a 37° C. humidified incubator with 5% CO2 for 24 hours. After 24 hours, the old medium was aspirated and fresh room temperature growth medium (15 ml) was added onto the cells. Prior to adding the fresh growth medium, it was brought up to room temperature using a room temperature water bath without the cover. The flasks containing cells with fresh media were placed back into the 37° C. incubator. Flasks containing the old media was replaced with fresh media repeatedly until the desired confluence (75%) was reached.
(§2) When the cells reached the desired confluency, they were removed from the incubator and the media was aspirated off using a vacuum trap. Hank's Buffered Saline Solution (HBSS; 10 ml of 1X; Mediatech, Inc.; Herndon, Va.) was placed into the flask and the entire surface area rinsed. The HBSS was then aspirated. Trypsin (1X; Mediatech, Inc.) was added in a 5 ml volume. The flasks were placed back into the incubator for 8 minutes. The flasks were taken from the incubator and 15 ml of Trypsin Neutralizing Solution (1X; Cascade Biologics; Portland, Oreg.) was added to each flask to neutralize the trypsin. […]

Beta-catenin = test: PCR gene expression, Beta-catenin
Procedure: as §1, §2

Collagen 4 = test: PCR gene expression, Collagen 4
Procedure: as §1, §2

Collagen 7 = test: PCR gene expression, Collagen 7
Procedure: as §1, §2

Estrogen Receptor alpha = test: PCR gene expression, Estrogen Receptor alpha
Procedure: as §1, §2

Hyaluronic acid synthase = test: PCR gene expression, Hyaluronic acid synthase; design: key: (—): Not statistically significant
Procedure: as §1, §2

| Structure (SMILES) | Frizzled 10 Transcript # (Frizzled 10) | Beta-Catenin Transcript # (Beta-catenin) | Collagen 4 Transcript # (Collagen 4) | Collagen 7 Transcript # (Collagen 7) | Estrogen Receptor alpha Transcript # (Estrogen Receptor alpha) | Hyaluronic acid synthase Transcript # (Hyaluronic acid synthase) |
| --- | --- | --- | --- | --- | --- | --- |
| CCNC(=O)CC[C@H](N)C(=O)O [L-Theanine, L-theanine] | 17.68 and 16.48 and 17.08 | 10.31 and 8.678 (2×) | 10.79 and 9.561 and 10.49 | 12.87 and 10.72 and 11.44 | 13.03 and 12.39 and 7.627 | 10.53 and 7.971 and 8.113 |
| N[C@@H](CSc1ccccc1)C(=O)O [S-Phenyl-L-Cysteine] | 34.68 and 26.67 and 30.62 | 14.67 and 15.49 and 11.41 | 7.416 and 8.343 and 8.807 | 35.46 and 34.38 and 30.09 | 8.12 and 10.99 and 8.598 | 3.637 (2×) and 3.423 |
| CSC[C@H](N)C(=O)O [S-Methyl-L-Cysteine] | 18.65 and 16.26 and 18.41 | 8.657 and 10.39 and 9.955 | 9.845 and 10.83 and 9.353 | 14.83 and 16.55 (2×) | 6.087 and 5.073 | — |
